Data taken from PMC10499324, “The differing effects of a dual acting regulator on SIRT1” (Frontiers in Molecular Biosciences, 2023).
“And” between values parts separate entries of the source, which are not always exact repeats. Equal entries are not always repeated. One block for each compound: values may come before it. Where no end group is shown, it is not given here.

Key:
hSIRT1-143 [1] = target: T1, hSIRT1-143 (Homo sapiens, UniProt Q96EB6); test: Enzyme-coupled continuous SIRT1 deacetylase kinetics assay (Michaelis-Menten); type: biochemical; settings: for K M / k cat / k cat/K M: peptide as substrate, without resveratrol
T1 construct: Schematic of SIRT1-143 design, consisting of residues 143–512 and the region 641–665; SUMO (smt3) (N, cleaved yes); His tag (N, cleaved yes); made in house; host or cells: E. coli BL21 (DE3)
T1 sequence (Q96EB6 143-512 limits assumed): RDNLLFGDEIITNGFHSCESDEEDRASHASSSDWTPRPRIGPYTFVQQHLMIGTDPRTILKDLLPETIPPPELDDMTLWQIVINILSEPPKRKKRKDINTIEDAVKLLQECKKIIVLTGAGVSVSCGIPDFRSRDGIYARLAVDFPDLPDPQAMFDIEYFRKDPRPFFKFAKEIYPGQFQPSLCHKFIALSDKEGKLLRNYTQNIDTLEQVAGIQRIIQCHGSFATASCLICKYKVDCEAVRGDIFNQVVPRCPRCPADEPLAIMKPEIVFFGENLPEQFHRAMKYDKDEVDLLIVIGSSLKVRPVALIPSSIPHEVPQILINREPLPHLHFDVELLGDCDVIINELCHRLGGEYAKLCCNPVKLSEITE
T1 sequence (Q96EB6 641-665 limits assumed): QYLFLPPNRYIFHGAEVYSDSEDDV
Protocol: Assays were conducted in accordance with a prior publication ([Smith et al., 2009]). Peptide substrates were 11 or 13-mer peptides with acetylated lysine at the middle residue position, synthesized and purified by Elim BioPharm (Hayward, CA) to a purity of 90%. The following reagents were used in the assay mixtures: 5–640 μM peptide substrate, 640 μM NAD^+, 2 mM MPB-PncA (nicotinamidase), 20 mM phosphate buffer pH 7.6, 3 mM α-ketoglutarate, 1 mM DTT, 0.2 mM NADPH, and 6.7 units of glutamate dehydrogenase. Then, 0.2–1 μM of the SIRT1 enzyme was added to start the reactions. SIRT1 reactions were conducted in a transparent, flat-bottomed, 96-well plate with a final volume of 150 μL per well and read with a BioTek™ Synergy HTX Multimode Reader. […] After SIRT1 was added, absorbance at 340 nm was measured to quantify the rate of NADPH depletion for a duration of 10 min. Initial rates of the reaction were calculated using 6.22 mM^-1cm^-1 as the extinction coefficient for NADPH and fitting the slope of the linear component of the reaction. The initial velocity of the reaction absent the peptide substrate, which served as a background control, was subtracted from the initial velocities of all other reactions. By fitting the initial rate data to the Michaelis-Menten equation in GraphPad Prism, the values for k cat and K M were obtained.

hSIRT1-143 [2] = target: T1, hSIRT1-143; test: Small angle X-ray scattering (SAXS) of SIRT1 complexes; settings: for Rg / Rxs: + 200 μM resveratrol; for Δ Rg / Δ Rxs: + vs - 200 μM resveratrol; on Rg: values in Å; on Rxs: values in Å
Protocol: SAXS samples were prepared with 40 μM of hSIRT1-143 in storage buffer (50 mM Tris pH 8.0, 150 mM NaCl, 1 mM DTT). All samples contained 640 μM of NAD^+ analog ADPr (adenosine diphosphate ribose) except for the apo SIRT1 sample. Varying concentrations of different peptide substrates (500–5,000 μM) were added to the different samples. The concentration of peptide substrate added was determined based on previous kinetics assays to ensure that SIRT1 is mostly saturated with the peptide.
With an X-ray wavelength of 1.216 Å and a sample-to-detector distance of 2070 mm, the scattering vector, q, varied from 0.01 to 0.45. Where 2θ is the scattering angle, the scattering vector is defined as q = 4π sin θ/λ. The experiments were conducted at a temperature of 20°C. The sample was placed for 10 s with the detector framing at 0.3 s to optimize the signal using the SAXS FrameSlice program (https://bl1231.als.lbl.gov/ran). ATSAS 3.0 Primus software was utilized to plot and analyze the combined SAXS ([Manalastas-Cantos et al., 2021]).

hSIRT1-143 [3] = target: T1, hSIRT1-143; test: Differential scanning fluorimetry (SYPRO Orange) thermal stability of SIRT1 complexes; type: binding; settings: 200 μM resveratrol
Protocol: Differential Scanning Fluorimetry experiments were performed in a 384-well plate using a qTOWER real-time PCR thermal cycler (Analytik Jena). Fluorescence intensity was measured in the TAMRA channel (Ex: 535 nm Em: 580 nm) over a period of 1 h with a 1°C increase temperature ramp per cycle in “Normal” mode. […] 1:100 SYPRO® Orange (Millipore) dye diluted in buffer was also added to each well. All measurements were performed in triplicate, with buffer-only controls containing ADPr, resveratrol, and peptide performed for all conditions. Tma was calculated using the first derivative method and fitting a Lorentzian distribution to the first derivative curve (Tma = center of curve/inflection point) in GraphPad Prism ([Wu et al., 2020]).

hSIRT1-143 [4] = target: T1, hSIRT1-143; test: as above; type: binding; settings: SIRT1•ADPr•Ac-H3; 200 μM resveratrol; single data set
[5] = towards Ac-p53W, 200 μM resveratrol

K M (hSIRT1-143 [1]): 108 ± 5.5 µM
k cat (hSIRT1-143 [1]): 0.09 ± 0.006 s⁻¹
k cat/K M (hSIRT1-143 [1]): 1000 ± 400 M⁻¹ s⁻¹
Compound: ^3VRGKAGK^AcGLGKGG^15 [Ac-H4]

K M (hSIRT1-143 [1]): 78 ± 2.2 µM
k cat (hSIRT1-143 [1]): 0.06 ± 0.002 s⁻¹
k cat/K M (hSIRT1-143 [1]): 700 ± 200 M⁻¹ s⁻¹
Compound: ^2ASSSGSK^AcAEFIVG^14 (ASSSGSK(Ac)AEFIVG; UniProt P48729 2-14, looked up, fragment) [Ac-CSNK, 13-mer SIRT1 peptide substrate with acetylated lysine, casein kinase 1 alpha 1 (K8)]

K M (hSIRT1-143 [1]): 13 ± 1.4 µM
k cat (hSIRT1-143 [1]): 0.06 ± 0.001 s⁻¹
k cat/K M (hSIRT1-143 [1]): 5000 ± 500 M⁻¹ s⁻¹
Compound: ^376STSRHKK^AcWMFKTE^389 [Ac-p53W]

K M (hSIRT1-143 [1]): 25 ± 0.2 µM
k cat (hSIRT1-143 [1]): 0.08 ± 0.009 s⁻¹
k cat/K M (hSIRT1-143 [1]): 3000 ± 30 M⁻¹ s⁻¹
Compound: ^376STSRHKK^AcLMFKTE^388 (STSRHKK(Ac)LMFKTE; UniProt P04637 376-388, looked up, fragment) [Ac-p53, 13-mer SIRT1 peptide substrate with acetylated lysine, p53(K382)]

increases in K M (hSIRT1-143 [1]; towards Ac-p53, Ac-H4, Ac-H3 and Ac-CSNK, 200 μM resveratrol): 2-6 fold
decrease in K M (hSIRT1-143 [1]; [5]): 2 fold
increase of overall SIRT1 activity (k cat/K M) (hSIRT1-143 [1]; [5]): 2 fold
effect on k cat values (hSIRT1-143 [1]; towards any of the peptide substrates, 200 μM resveratrol): did not have significant effects
Rg (hSIRT1-143 [2]; SIRT1•ADPr): 35.45 Å
Rxs (hSIRT1-143 [2]; SIRT1•ADPr): 14.19 Å
Δ Rg (hSIRT1-143 [2]; SIRT1•ADPr): 1.7%
Δ Rxs (hSIRT1-143 [2]; SIRT1•ADPr): 39.9%
Rg (hSIRT1-143 [2]; SIRT1•ADPr•Ac-CSNK): 33.87 Å
Rxs (hSIRT1-143 [2]; SIRT1•ADPr•Ac-CSNK): 12.67 Å
Δ Rg (hSIRT1-143 [2]; SIRT1•ADPr•Ac-CSNK): 4.9%
Rg (hSIRT1-143 [2]; SIRT1•ADPr•Ac-H3): 35.94 Å
Rxs (hSIRT1-143 [2]; SIRT1•ADPr•Ac-H3): 12.42 Å
Δ Rg (hSIRT1-143 [2]; SIRT1•ADPr•Ac-H3): 3.1%
Rg (hSIRT1-143 [2]; SIRT1•ADPr•Ac-H4): 36.99 Å
Rxs (hSIRT1-143 [2]; SIRT1•ADPr•Ac-H4): 13.7 Å
Δ Rg (hSIRT1-143 [2]; SIRT1•ADPr•Ac-H4): 7.3%
Rg (hSIRT1-143 [2]; SIRT1•ADPr•Ac-p53): 34.92 Å
Rxs (hSIRT1-143 [2]; SIRT1•ADPr•Ac-p53): 14.37 Å
Δ Rg (hSIRT1-143 [2]; SIRT1•ADPr•Ac-p53): 9.2%
Rg (hSIRT1-143 [2]; SIRT1•ADPr•Ac-p53W): 36.91 Å
Rxs (hSIRT1-143 [2]; SIRT1•ADPr•Ac-p53W): 13.86 Å
Δ Rg (hSIRT1-143 [2]; SIRT1•ADPr•Ac-p53W): 9% and 8.9%
Δ Rxs (hSIRT1-143 [2]; SIRT1•ADPr•Ac-p53W): 7% and 6.9%
Rg (hSIRT1-143 [2]; apo SIRT1): 32.26 Å
Rxs (hSIRT1-143 [2]; apo SIRT1): 11.26 Å
Δ Rg (hSIRT1-143 [2]; apo SIRT1): 6.3%
Δ Rxs (hSIRT1-143 [2]; apo SIRT1): 9.7%
decrease of Tma (hSIRT1-143 [3]; SIRT1 in complex with ADPr): 0.2 °C
decrease of melting temperature (hSIRT1-143 [3]; SIRT1•ADPR•Ac-p53W complex): 1 °C
Tma + res (hSIRT1-143 [3]; SIRT1•ADPr): 49.9 ± 0.44 °C
Tma + res (hSIRT1-143 [3]; SIRT1•ADPr•Ac-CSNK): 46.0 ± 0.94 °C
Tma + res (hSIRT1-143 [3]; SIRT1•ADPr•Ac-H4): 46.5 ± 1.49 °C
Tma + res (hSIRT1-143 [3]; SIRT1•ADPr•Ac-p53): 48.2 ± 0.54 °C
Tma + res (hSIRT1-143 [3]; SIRT1•ADPr•Ac-p53W): 49.5 ± 0.46 °C
Tma + res (hSIRT1-143 [3]; apo SIRT1): 49.4 ± 0.48 °C
decrease of Tma (hSIRT1-143 [3]; apo SIRT1): 1.7 °C
Tma + res (hSIRT1-143 [4]): 46.3 ± 0.55 °C
Compound: Oc1ccc(/C=C/c2cc(O)cc(O)c2)cc1 [resveratrol]

K M (hSIRT1-143 [1]): 121 ± 12.6 µM
k cat (hSIRT1-143 [1]): 0.06 ± 0.009 s⁻¹
k cat/K M (hSIRT1-143 [1]): 500 ± 300 M⁻¹ s⁻¹
Compound: ^9KSTGGK^AcAPRKQ^19 [Ac-H3]
